In patent publication US20260034064A1, “COMPOSITIONS FOR THE TREATMENT OF CFTR-MEDIATED DISEASES” (Vertex Pharmaceuticals Incorporated, priority 2022, published 2026):

How the values were obtained:
[1] = Thermodynamic stability of solid forms of Compound I; type: physicochemical; conditions: compared with other forms of Compound I; no method or data given
[2] = Bioavailability of the solid form of Compound I; conditions: no species, dose or data printed

- thermodynamic stability of the solid form [1]: most thermodynamically stable form
- bioavailability [2]: good bioavailability
Structure (SMILES): Cc1nn(C)cc1S(=O)(=O)NC(=O)c1ccc(-n2ccc(OCC(C)(C)C(F)(F)F)n2)nc1N1C[C@@H](C)CC1(C)C [Crystalline Compound I Form A, N-(1,3-dimethylpyrazol-4-yl)sulfonyl-6-[3-(3,3,3-trifluoro-2,2-dimethyl-propoxy)pyrazol-1-yl]-2-[(4S)-2,2,4-trimethylpyrrolidin-1-yl]pyridine-3-carboxamide]
